{"source": "ChEMBL document CHEMBL4699462", "about": "“Prenylated Flavonoids from the Roots of Tephrosia rhodesica” (J Nat Prod, 2020)", "key": {"Plasmodium falciparum": {"tested_on": "Plasmodium falciparum", "assay": "Antiplasmodial activity against chloroquine-sensitive Plasmodium falciparum 3D7 infected in human erythrocytes assessed as inhibition of parasite growth incubated for 72 hrs by DAPI staining based fluorescence analysis", "format": "functional, organism-based", "conditions": "3D7, Erythrocyte"}, "HEK293": {"tested_on": "HEK293", "assay": "Cytotoxicity against human HEK293 cells at 40 uM", "format": "cell-based", "conditions": "hek293, 40 µM"}, "[1]": {"assay": "Cytotoxicity against human HEK293 cells assessed as cell death", "format": "cell-based", "conditions": "read-out: LD50 (the source's name)"}}}
{"smiles": "CC(C)=CCc1cc2c(cc1O)OC[C@@]1(O)c3cc4c(cc3O[C@@H]21)OCO4", "values": [{"measurement": "IC50", "setting": "Plasmodium falciparum", "result": 10.2, "unit": "µM"}, {"measurement": "Activity", "setting": "HEK293", "result": 27, "unit": "%"}]}
{"smiles": "C=C(C)[C@H]1Cc2c(ccc3c2O[C@@H]2C(O)Oc4cc(OC)c(OC)cc4[C@@H]2C3=O)O1", "note": "(stereo partly drawn)", "values": [{"measurement": "IC50", "setting": "Plasmodium falciparum", "result": 8.6, "unit": "µM"}, {"measurement": "CC50", "setting": "[1]", "result": 10.9, "unit": "µM"}]}
{"smiles": "COc1cc(OC)c2c(c1CC=C(C)C)O[C@H](c1ccccc1)C[C@H]2OC", "values": [{"measurement": "IC50", "setting": "Plasmodium falciparum", "result": 7.4, "unit": "µM"}, {"measurement": "Activity", "setting": "HEK293", "result": 87, "unit": "%"}]}
{"smiles": "COc1cc(OC)c2c(c1CC=C(C)C)O[C@H](c1ccccc1)C[C@H]2O", "values": [{"measurement": "IC50", "setting": "Plasmodium falciparum", "result": 14.5, "unit": "µM"}]}
{"smiles": "CC(C)=CCC1(CC=C(C)C)C(=O)C(=O)C2=C1O[C@H](c1ccccc1)C[C@H]2O", "note": "(relative stereo)", "values": [{"measurement": "IC50", "setting": "Plasmodium falciparum", "result": 7, "unit": "µM"}, {"measurement": "Activity", "setting": "HEK293", "result": 101, "unit": "%"}]}
{"smiles": "CC(C)=CCC1(CC=C(C)C)C(=O)[C@](O)(CC=C(C)C)C(=O)C2=C1O[C@H](c1ccccc1)C[C@H]2O", "note": "(relative stereo)", "values": [{"measurement": "IC50", "setting": "Plasmodium falciparum", "result": 5.7, "unit": "µM"}, {"measurement": "Activity", "setting": "HEK293", "result": 34, "unit": "%"}]}
{"smiles": "CC(C)=CCC1(CC=C(C)C)C(=O)[C@@](O)(CC=C(C)C)C(=O)C2=C1O[C@H](c1ccccc1)C[C@H]2O", "note": "(relative stereo)", "values": [{"measurement": "IC50", "setting": "Plasmodium falciparum", "result": 7.3, "unit": "µM"}, {"measurement": "Activity", "setting": "HEK293", "result": 71, "unit": "%"}]}
